Assays:
[1] = system: BVDV virus (Bovine viral Diarrhea Virus); test: Capture of BVDV virus on magnetic microbeads coated with pepβ2GPI; assay type: binding
Method: (§1) The pepβ2GPI were grafted onto the microbeads according to the supplier's recommendations. In summary, the microbeads are suspended in phosphate buffer at a pH of 6.0. The beads are then activated, for 15 minutes, in the presence of 1-ethyl-3-(3-Dimethylaminopropyl) carbodiimide and N-hydroxysuccinimide. After washing with HCl, 2 mM, the beads are suspended in a phosphate buffer at a pH of 7.5, containing the pepβ2GPI. The concentration of pepβ2GPI in this coupling buffer is 20 mg/L; the microbeads are incubated in the buffer with gentle and constant shaking at a temperature of 25° C. for 3 hours. The microbeads are then centrifuged at 1,500 rpm and the supernatant is removed; the centrifugation pellet is suspended in the same buffer as that used for the coupling of pepβ2GPI, which forms the suspension of microbeads coated with pepβ2GPI which we want to test.
(§2) One hundred microliters of viral culture supernatant to be studied are placed in an Eppendorf tube with 900 microliters of Tris buffer at a pH of 7.5 and 10 microliters of microbeads. The tubes are shaken horizontally to mix the microbeads well, and each tube is incubated at 37° C. or at room temperature (RT=22° C.) for 30 minutes. In each tube, the microbeads are then separated from the liquid phase by means of a magnet, placed externally against the wall of the tube, and the viral RNA is extracted. The beads are brought into contact with a viral lysis buffer, included in an RNA extraction kit: QIAamp RNA viral kit, sold by QIAGEN and the viral RNA is isolated according to the seller's recommendations.
(§3) The viruses tested are the HSV virus (Herpes Simplex virus) and the BVDV virus (Bovine viral Diarrhea Virus).
(§4) The same protocol as that described in example 1 was carried out.

[2] = system: HSV virus (Herpes Simplex virus); test: Capture of HSV virus on magnetic microbeads coated with pepβ2GPI; assay type: binding
Method: as §1, §2, §3, §4

E. coli ATCC 11105 = test: Capture on magnetic microbeads coated with pepβ2GPI: C3 E. coli ATCC 11105; assay type: binding
Method: (§5) To test the interaction of microbeads coated with β2GPI and the peptides derived from them, with bacteria present in the blood, 1 ml of blood culture is taken from each sample and placed in a 15 ml tube. 20 μl of microbeads are added and each tube is incubated at 37° C. with horizontal shaking. The tubes are then placed in a magnetic field which retains the microbeads on the wall and the supernatant is removed. The microbeads are then washed twice with sterile PBS, of the same composition as previously indicated; the microbeads are then resuspended in 150 μl of BTS culture medium. Two methods for detecting bacteria captured by microbeads were used: culture on TS agar and PCR For the detection of the bacterial capture by culture, 50 μl of the suspension of microbeads thus obtained are taken and they are spread out in a Petri dish containing TS agar. Petri dishes are incubated in an oven at 37° C. for 24 hours. The bacteria that have grown on the agar were then counted.
(§6) The tested bacteria are: C3 E. coli ATCC 11105, C5 S. aureus ATCC 6538, H61 E. coli B6054, C1: E. coli ATCC 8739, H46: C. albicans 1 and H: 60 SCN
(§7) The same protocol and primers as those described in example 9 were carried out.

S. aureus ATCC 6538 = test: Capture on magnetic microbeads coated with pepβ2GPI: C5 S. aureus ATCC 6538; assay type: binding
Method: as §5, §6, §7

E. coli B6054 = test: Capture on magnetic microbeads coated with pepβ2GPI: H61 E. coli B6054; assay type: binding
Method: as §5, §6, §7

S. aureus, SA 378804 = test: Capture of S. aureus SA 378804 on magnetic microbeads, culture and counting; assay type: binding, Staphylococcus aureus; conditions: S. aureus SA 378804 colonies from captured beads
Method: One ml of the culture of bacteria to be studied is placed in a hemolysis tube. 100 μl of buffer are added, the trade name of which is TTGB, then 20 μl of microbeads. The tube is stirred horizontally, to mix the microbeads well, and incubated at 37° C. or at room temperature (TA=22° C.) for half an hour. At the end of the incubation, the microbeads are separated from the liquid phase by means of a magnet, placed externally against the wall of the tube. The microbeads are then washed twice with LB medium and then resuspended in 1 ml of BTS culture medium (Tripticase-Soy broth) having the following formulation: […]
This culture medium is brought to a boil and then autoclaved, to make it sterile, before use. 20 μl of the microbead suspension are taken and spread in a Petri dish containing TS agar (Trypticase-Soya agar) having the following formulation: […]
The Petri dishes are incubated at +37° C. for 24 hours. The bacteria that have grown on the agar are then counted.
The used bacterium is a strain of Staphylococcus aureus (S. aureus), SA 378804, isolated from the wound of the foot of a diabetic person, Sotto et al., Diabetes Care (2008) 31 (12), p. 2318-24. The same experiment as that described in the previous example was carried out.

H-((SSLAFWK)2-K)2-K—NH2 [Peptide P11]
Capture of BVDV virus [1]: 266%
Capture of HSV virus [2]: 123%
Capture of C3 E. coli ATCC 11105 (E. coli ATCC 11105): 43%
Capture of C5 S. aureus ATCC 6538 (S. aureus ATCC 6538): 63%
Capture of H61 E. coli B6054 (E. coli B6054): 90%

B1: β2GPI: plasma glycoprotein called β2-glycoprotein I, grafted on beads as the reference (protein, UniProt P02749 20-345, looked up)
Beta-2-glycoprotein 1: GRTCPKPDDLPFSTVVPLKTFYEPGEEITYSCKPGYVSRGGMRKFICPLTGLWPINTLKCTPRVCPFAGILENGAVRYTTFEYPNTISFSCNTGFYLNGADSAKCTEEGKWSPELPVCAPIICPPPSIPTFATLRVYKPSAGNNSLYRDTAVFECLPQHAMFGNDTITCTTHGNWTKLPECREVKCPFPSRPDNGFVNYPAKPTLYYKDKATFGCHDGYSLDGPEEIECTKLGNWSAMPSCKASCKVPVKKATVVYQGERVKIQEKFKNGMLHGDKVSFFCKNKEKKCSYTEDAQCIDGTIEVPKCFKEHSSLAFWKTDASDVKPC
modifications: grafted on beads
% compared to β2GPI (S. aureus, SA 378804): 100%

Source: patent publication US20240002470A1, “Method for separation and/or detection and/or in vitro quantification of infectious compounds in biological material” (priority 2020, published 2024)
